Values of other authors in patent US5470737A, “Stably-transformed cells expressing human thiopurine methyltransferase” (priority 1994, dated 1995).
“Also recorded” adds a separate entry of the source.

What was measured:
human kidney TPMT = target: T1, human kidney TPMT (Homo sapiens, UniProt P51580); settings: read-out: Apparent Km value for 6-MP; cited from earlier work
T1 construct: to assay the enzyme in human kidney preparations; host or cells: human kidney
T1 sequence (P51580 1-245): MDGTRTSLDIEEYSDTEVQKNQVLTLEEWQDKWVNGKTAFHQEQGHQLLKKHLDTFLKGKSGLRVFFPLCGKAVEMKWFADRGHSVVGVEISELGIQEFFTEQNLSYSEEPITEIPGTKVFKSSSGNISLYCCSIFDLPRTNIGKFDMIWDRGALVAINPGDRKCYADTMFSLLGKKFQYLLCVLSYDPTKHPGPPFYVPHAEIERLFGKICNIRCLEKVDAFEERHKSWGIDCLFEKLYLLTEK

[1] = system: patients with genetically low or undetectable RBC TPMT activity; settings: patients lacking or with low TPMT activity; cited from earlier work
TPMT = settings: cited from earlier work
human liver TPMT = settings: read-out: Apparent Km value for 6-MP; cited from earlier work

## Sc1ncnc2nc[nH]c12 [6-MP, 6-mercaptopurine]
Human kidney TPMT
  Km: 300 µM
[1]
  risk of myelosuppression (in words): even more at risk for the occurrence of severe myelosuppression; also recorded: greatly increased risk for the development of life-threatening thiopurine-induced myelosuppression
TPMT
  substrate for TPMT (in words): substrates for TPMT
Human liver TPMT
  Km: 580 µM
